Measurements reported in patent US20030152953A1, “Polynucleotide encoding a novel human potassium channel alpha-subunit, K+alphaM2” (priority 2001, published 2003).
Like-named read-outs stand apart in the source and are kept apart here.

Tests used:
[1] = biological target: T1, Kv2.2 (UniProt Q92953); conditions: cited from earlier work; for IC50: read-out: IC50, inhibition of Kv2.2 current
T1 sequence (Q92953 1-911): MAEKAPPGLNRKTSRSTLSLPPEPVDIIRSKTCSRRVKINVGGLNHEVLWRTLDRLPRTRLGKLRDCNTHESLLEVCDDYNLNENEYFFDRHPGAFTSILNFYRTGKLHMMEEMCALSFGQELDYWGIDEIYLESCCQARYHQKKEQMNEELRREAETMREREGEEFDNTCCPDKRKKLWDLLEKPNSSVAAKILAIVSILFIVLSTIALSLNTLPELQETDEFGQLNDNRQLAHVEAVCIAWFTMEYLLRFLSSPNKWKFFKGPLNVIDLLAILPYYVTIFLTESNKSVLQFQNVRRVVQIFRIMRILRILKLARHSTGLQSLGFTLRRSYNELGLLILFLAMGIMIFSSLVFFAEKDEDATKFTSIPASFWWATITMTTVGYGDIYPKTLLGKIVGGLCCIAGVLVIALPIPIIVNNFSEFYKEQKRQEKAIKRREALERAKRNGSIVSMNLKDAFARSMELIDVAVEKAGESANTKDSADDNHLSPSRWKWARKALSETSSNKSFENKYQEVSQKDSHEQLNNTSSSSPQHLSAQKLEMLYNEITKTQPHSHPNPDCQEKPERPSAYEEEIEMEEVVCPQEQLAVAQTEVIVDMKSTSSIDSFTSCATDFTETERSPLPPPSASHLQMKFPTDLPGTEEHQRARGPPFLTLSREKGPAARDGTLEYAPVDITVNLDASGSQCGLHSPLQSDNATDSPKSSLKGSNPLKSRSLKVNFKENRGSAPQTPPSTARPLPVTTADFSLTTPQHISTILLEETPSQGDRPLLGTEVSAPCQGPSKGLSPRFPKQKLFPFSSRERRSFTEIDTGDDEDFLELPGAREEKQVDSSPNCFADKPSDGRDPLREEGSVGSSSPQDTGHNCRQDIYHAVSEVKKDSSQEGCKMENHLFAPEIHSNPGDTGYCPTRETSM

[2] = system: Kv2.1; conditions: Kv2.1 alone; cited from earlier work
[3] = system: Kv2.1/Kv9.1; conditions: cited from earlier work
[4] = system: Human lung fibroblasts; test: Human lung fibroblast growth, Alamar Blue; type: cell-based; conditions: 3 days in basal medium
Description: Human lung fibroblasts are obtained from Clonetics (San Diego, Calif.) and maintained in growth media from Clonetics. Dermal microvascular endothelial cells are obtained from Cell Applications (San Diego, Calif.). For proliferation assays, the human lung fibroblasts and dermal microvascular endothelial cells can be cultured at 5,000 cells/well in a 96-well plate for one day in growth medium. The cells are then incubated for one day in 0.1% BSA basal medium. After replacing the medium with fresh 0.1% BSA medium, the cells are incubated with the test proteins for 3 days. Alamar Blue (Alamar Biosciences, Sacramento, Calif.) is added to each well to a final concentration of 10%. The cells are incubated for 4 hr. Cell viability is measured by reading in a CytoFluor fluorescence reader. For the PGE2 assays, the human lung fibroblasts are cultured at 5,000 cells/well in a 96-well plate for one day. […]

[5] = system: cortical or hippocampal neurons; conditions: in vitro; cited from earlier work
[6] = system: nigral dopaminergic neurons; conditions: tissue culture paradigms; cited from earlier work
[7] = system: nigral dopaminergic neurons; conditions: gel foam implants in the striatum; cited from earlier work
[8] = system: slow component of the delayed rectifier current in native colonic myocytes; conditions: 1 microM; cited from earlier work
[9] = Xenopus oocytes injected with Kv2.2 mRNA

In the case of charybdotoxin, the “sensitivity of Kv2.2 current” value [1, 9] is given as “insensitive”.
In the case of `CC[N+](CC)(CC)CC` [tetraethylammonium], the IC50 [1] is given as 2.6 mM, the “sensitivity of currents to blocker” value [2] is given as “sensitive” and the “effect on biphasic voltage-dependence of currents” value ([3]; 20 mM) is given as “eliminate the biphasic voltage-dependence”. For the same compound, the “sensitivity of currents to blocker” value ([3]; Kv2.1/Kv9.1) was “sensitive”.
For “FGF-2: FGF-2 (basic FGF), fibroblast growth factor”, the “concentration showing stimulation of fibroblast growth” value [4] is given as 10 to 2500 ng/mL, the neurite outgrowth [5] is given as “increases” and the neuron survival [5] is given as “increases”. The “activity towards nigral dopaminergic neurons” value [6] was “trophic activity” and the “protection of nigral dopaminergic neurons from MPTP toxicity” value [7] was “near complete protection”.
In the case of `C=C[C@H]1C[N@@]2CC[C@H]1C[C@H]2[C@H](O)c1ccnc2ccc(OC)cc12` [quinine], the IC50 [1, 9] is given as 0.0137 mM and the “block of delayed rectifier current” value [8] is given as “preferentially block the slow component of the delayed rectifier current”.
